The values that follow come from patent publication US12473339B2, “Acylated glucagon analogues” (Zealand Pharma A/S, priority 2013, dated 2025).

Assay [1] has as its target T1, endogenous GLP-1 receptors (Mus musculus, UniProt O35659).
T1 construct: Agonistic activity of the test compounds on endogenous GLP-1 receptors; endogenous in cells
T1 sequence (O35659 22-463): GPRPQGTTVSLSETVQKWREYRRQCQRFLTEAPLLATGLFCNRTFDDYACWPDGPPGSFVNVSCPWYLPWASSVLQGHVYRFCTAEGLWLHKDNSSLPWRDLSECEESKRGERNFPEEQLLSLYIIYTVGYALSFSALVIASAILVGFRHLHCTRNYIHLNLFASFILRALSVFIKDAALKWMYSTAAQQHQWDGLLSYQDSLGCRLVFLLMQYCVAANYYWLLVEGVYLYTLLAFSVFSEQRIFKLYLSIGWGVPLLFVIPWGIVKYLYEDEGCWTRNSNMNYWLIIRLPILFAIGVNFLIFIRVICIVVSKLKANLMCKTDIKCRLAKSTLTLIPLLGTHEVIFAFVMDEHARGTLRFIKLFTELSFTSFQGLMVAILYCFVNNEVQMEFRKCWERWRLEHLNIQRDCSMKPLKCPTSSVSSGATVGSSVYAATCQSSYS
Kind of assay: Agonistic activity on endogenous GLP-1 receptor (cAMP, murine insulinoma cell line). Format: cell-based. The note with it: intracellular cAMP, 15 minutes at 26° C. As to the method:
Agonistic activity of the test compounds on endogenous GLP-1 receptors was determined using a murine insulinoma cell line. Intracellular cAMP was used an indicator of receptor activation.
Cells were cultured for 24 h at a density of 10,000 cells/well in a 384-well plate. Medium was removed and 10 μL KRBH buffer (NaCl 130 mM, KCl 3.6 mM, NaH2PO4 0.5 mM, MgSO4 0.5 mM, CaCl2 1.5 mM) containing test compound or GLP-1 (at increasing concentrations from 0.1 pM to 100 nM) or solvent control (0.1% (v/v) DMSO) was added to the wells for 15 minutes at a temperature of 26° C.
The cellular cAMP content is measured using the AlphaScreen cAMP Functional Assay Kit (Perkin Elmer). Measurement was performed using the Envision (PerkinElmer) according to manufacturer's recommendations.
Results were converted into cAMP concentrations using a cAMP standard curve prepared in KRBH buffer containing 0.1% (v/v) DMSO. The resulting cAMP curves were plotted as absolute cAMP concentrations (nM) over log (test compound concentration) and analyzed using the curve fitting program XLfit. […]

For assay [2], the target named is T2, human glucagon-like peptide 1 receptor (GLP-1R) (Homo sapiens, UniProt P43220).
T2 construct: expressed in transfected cells
The experiment in a line: GLP-1 receptor efficacy assay (cAMP AlphaScreen, CHO cells). In kind it is cell-based. The conditions noted are these: EC50 [GLP-1R] / EC50 [Glucagon-R], human receptors in CHO-K1. In short, it runs like this: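 Stable CHO clones expressing the human receptor, seeded 24 h before assay. Peptides applied for 15 min at room temperature in KRBH with 0.1 mM IBMX; cells lysed and cAMP quantified by AlphaScreen. EC50 and efficacy relative to glucagon or GLP-1 from curve fitting.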

T2 sequence (P43220 24-463): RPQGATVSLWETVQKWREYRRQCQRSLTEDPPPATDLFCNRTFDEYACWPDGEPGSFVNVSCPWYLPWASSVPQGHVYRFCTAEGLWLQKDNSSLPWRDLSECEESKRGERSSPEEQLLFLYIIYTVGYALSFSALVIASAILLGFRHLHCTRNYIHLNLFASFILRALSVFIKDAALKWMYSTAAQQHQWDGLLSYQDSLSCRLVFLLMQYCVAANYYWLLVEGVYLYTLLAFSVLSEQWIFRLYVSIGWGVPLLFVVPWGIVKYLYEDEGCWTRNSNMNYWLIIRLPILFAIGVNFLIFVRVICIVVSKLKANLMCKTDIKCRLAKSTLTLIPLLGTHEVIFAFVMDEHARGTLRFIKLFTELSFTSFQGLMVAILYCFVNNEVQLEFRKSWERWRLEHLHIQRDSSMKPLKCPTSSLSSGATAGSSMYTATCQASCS

Molecule `CC(C)C[C@H](NC(=O)[C@H](CC(C)C)NC(=O)[C@H](Cc1c[nH]c2ccccc12)NC(=O)[C@H](CCC(=O)O)NC(=O)[C@@H](NC(=O)[C@H](Cc1ccccc1)NC(=O)[C@H](CC(=O)O)NC(=O)[C@H](Cc1c[nH]cn1)NC(=O)[C@H](C)NC(=O)[C@H](C)NC(=O)[C@H](CCCCNC(=O)CC[C@H](NC(=O)CCCCCCCCCCCCCCC(=O)O)C(=O)O)NC(=O)[C@H](CO)NC(=O)[C@H](CC(=O)O)NC(=O)[C@H](CC(C)C)NC(=O)[C@H](Cc1ccc(O)cc1)NC(=O)[C@H](CCCCN)NC(=O)[C@H](CO)NC(=O)[C@H](Cc1ccc(O)cc1)NC(=O)[C@H](CC(=O)O)NC(=O)[C@H](CO)NC(=O)[C@@H](NC(=O)[C@H](Cc1ccccc1)NC(=O)[C@@H](NC(=O)CNC(=O)[C@H](CCC(N)=O)NC(=O)C(C)(C)NC(=O)[C@@H](N)Cc1c[nH]cn1)[C@@H](C)O)[C@@H](C)O)C(C)C)C(=O)N[C@@H](CO)C(=O)N[C@@H](C)C(N)=O` [Compound 1, H-H-Aib-QGTFTSDYSKYLDS-K([15-carboxy-pentadecanoyl]-isoGlu)-AAHDFVEWLLSA-NH2] showed a concentration giving a half-maximal response (EC50) in assay [1] of 0.6 nM. In assay [2], the “Ratio GLP-1/Glucagon” value is recorded as 1.81.
On to `CC[C@H](C)[C@H](NC(=O)[C@H](Cc1ccccc1)NC(=O)[C@H](CC(=O)O)NC(=O)[C@H](CCCCN)NC(=O)[C@H](C)NC(=O)[C@H](C)NC(=O)[C@H](CCCCNC(=O)CC[C@H](NC(=O)CCCCCCCCCCCCCCCCC(=O)O)C(=O)O)NC(=O)[C@H](CCC(=O)O)NC(=O)[C@H](CC(=O)O)NC(=O)[C@H](CC(C)C)NC(=O)[C@H](Cc1ccc(O)cc1)NC(=O)[C@H](CCCCN)NC(=O)[C@H](CO)NC(=O)[C@H](Cc1ccc(O)cc1)NC(=O)[C@H](CC(=O)O)NC(=O)[C@H](CO)NC(=O)[C@@H](NC(=O)[C@H](Cc1ccccc1)NC(=O)[C@@H](NC(=O)CNC(=O)[C@H](CCC(N)=O)NC(=O)C(C)(C)NC(=O)[C@@H](N)Cc1c[nH]cn1)[C@@H](C)O)[C@@H](C)O)C(=O)N[C@@H](CCC(=O)O)C(=O)N[C@@H](Cc1c[nH]c2ccccc12)C(=O)N[C@@H](CC(C)C)C(=O)N[C@@H](CCC(=O)O)C(=O)N[C@@H](CO)C(=O)N[C@@H](C)C(N)=O` [Compound 10, H-H-Aib-QGTFTSDYSKYLDE-K([17-carboxy-heptadecanoyl]-isoGlu)-AAKDFIEWLESA-NH2], for which the concentration giving a half-maximal response (EC50) in assay [1] is 0.6 nM. For the same molecule, in assay [2], the “Ratio GLP-1/Glucagon” value came out at 0.38.

What is called EC50 is the concentration that produces a half-maximal response. Lower therefore signals greater potency.
